Several values for one entry are separate records, joined by “and”; a condition that tells them apart may be missing. Equal values may be shown once. Read-outs that look alike come from different tables or passages of the source.
Legend:
[1] = Interfacial tension (IFT) against light mineral oil, synergy study with cationic surfactant; type: physicochemical; settings: for IFT at 0.1% actives (single component): 0.1 wt. % active against light mineral oil, ambient temperature; for IFT at 0.1% actives/mineral oil (blend): 1:1 molar blend of the anionic with Ammonyx Cetac 30, 0.1% actives, light mineral oil; for Calculated IFT (no synergy): expected IFT of the 1:1 molar blend with Ammonyx Cetac 30 by ideal mixing; for Synergy?: measured versus expected IFT of the 1:1 molar blend with Ammonyx Cetac 30
Method: (§1) The surfactant blends tested are prepared at a 1:1 molar ratio without any pH adjustment. Dilutions are made using deionized water to the desired actives level. Actives amounts are wt. % unless indicated otherwise. Appearances are reported at ambient temperature for samples prepared within the last 24 h.
Interfacial tension (IFT) of all the individual components and their blends is measured at 0.1 wt. % active against light mineral oil at ambient temperature using a Kruss DSA-20 pendent drop tensiometer. The drop is blown out at 600 μL/min., and a video is recorded for 100 s. The video frames taken during the last 15 s are analyzed and used for the IFT calculation.
For blends having an IFT less than 0.5 mN/m, the IFT is determined using a spinning drop tensiometer (University of Texas 500) at 25° C. Oil density=0.877 g/cm^3 and surfactant density=0.997 g/cm^3 are used for the IFT calculation.
The expected IFT for a blend is calculated based on ideal mixing (non-synergistic) using the active component in each blend. The equation used is given as: Expected IFT=X*IFTa+(1−X)*IFTb where X is the actives % of component A, IFTa is the IFT of component A, and IFTb is the IFT of component B. If the measured IFT for a blend is less than the expected IFT, then the blend is synergistic. If the measured IFT for a blend is higher than the expected IFT, the system is antagonistic.

[2] = Surfactant phase behavior study by cross-polarized microscopy; type: physicochemical; settings: in deionized water, room temperature (20-22° C.); boundaries are estimates (±5%)
Method: Phase behavior is observed using an Olympus BH-2 cross-polarized microscope at 100-400× and room temperature (20° C. to 22° C.). The monounsaturated C11 alcohol derivatives (sulfates, ethoxylate sulfates, and alcohol ethoxylates) are compared with their saturated analogs. Samples are prepared by diluting the most concentrated product gradually with deionized water. When the surfactant concentration approaches a phase transition, the concentration is varied at 2-4% intervals to estimate the phase boundary. The actives level reported in Table 6 for each phase boundary is within ±5% of the true boundary. Samples are loaded between a microscope slide and cover glass and are allowed to equilibrate before observation. Microscopic texture is analyzed and used to determine the phase. For some samples, an AR 2000 rheometer (TA Instruments) is used to measure viscosity at 25° C. to further verify phase behavior.

[3] = type: physicochemical; settings: for Rating: overall, versus control
Method: Surfactant candidates for water soluble herbicide applications are examined as a replacement for the anionic, nonionic, or anionic/nonionic blend portion and compared to a known industry adjuvant standard for use in paraquat, a water soluble herbicide concentrate formulation. A standard dilution test is conducted whereby the concentrates are diluted in water to determine if solubility is complete.
A known industry paraquat adjuvant (2.8 g) is added and vigorously mixed for 30 s. Deionized water (8.07 g) is added, and mixing resumes for 30 s. […] The cylinder is stoppered and inverted ten times. Solubility is recorded as complete or incomplete. Cylinders are allowed to stand and the amount (in mL) and type of separation are recorded after 30 min., 1 h, 2 h, and 24 h. Results of the solubility testing appear in Table 4 below.
An eight to ten mole alkyl phenol ethoxylate surfactant (0.7 g) is added and vigorously mixed for 30 s. Test sample (0.7 g) is added and mixing resumes for 30 s. Deionized water (4.03 g) is added, and mixing resumes for 30 s.
Test sample (0.7 g) is added and vigorously mixed for 30 s. Sodium linear alkylbenzene sulfonate (“NaLAS,” 0.7 g) is added and mixing resumes for 30 s. Deionized water (4.03 g) is added, and mixing resumes for 30 s.
Test sample (1.4 g) is added and vigorously mixed for 30 s. Deionized water (4.03 g) is added, and mixing resumes for 30 s.

[4] = tested on: zein, yellow corn (maize) protein
Method: The zein test is based on solubilization by surfactants of a yellow corn (maize) protein that is normally insoluble in water unless it is denatured. The test gravimetrically determines the amount of zein dissolved by a surfactant solution. The solubility of zein in surfactant solutions correlates well with skin irritation or roughness caused by the surfactant. […] A higher zein number corresponds to a greater degree of irritation.
A 1% actives solution of each test surfactant (120 mL) is prepared. The pH of each solution is adjusted to about 7.0 with dilute aq. sulfuric acid or dilute aq. sodium hydroxide. The surfactant solution is warmed to 45° C. Zein powder (1.50 g) is added to each of three jars. Surfactant (25.0 g of 1% actives solution) is added to each jar, and to one empty jar to be used as a blank. The solutions are mixed using magnetic stirring on a temperature-controlled hotplate at 45° C. for 60 min. Each mixture is then centrifuged (2500 rpm, 15 min.), and undissolved zein powder is isolated by vacuum filtration. The residue is washed with deionized water and dried (55° C., 24 h) to constant weight. The amount of undissolved zein protein is found gravimetrically, and the results from three runs are averaged to give the % of solubilized zein and zein number.

[5] = Appearance and solubility of surfactants and of 1:1 molar blends with cationic surfactant; type: physicochemical; settings: for Appearance, 1.0%: 1:1 molar blend of the anionic with Ammonyx Cetac 30, 1.0% actives; for Appearance, 1.0% / Appearance, 0.1%: ambient temperature; for Appearance, 0.1%: 1:1 molar blend of the anionic with Ammonyx Cetac 30, 0.1% actives
Method: as §1

[6] = Adjuvant (anionic/nonionic) test sample, 342 ppm water
[7] = Anionic test sample, 342 ppm water
[8] = Nonionic test sample, 342 ppm water
[9] = 1% actives solution, pH about 7.0, 45° C., 60 min, average of three runs
[10] = relative to 1% actives Stepanol WA-Extra PCK (SLS) control = 100, higher = more irritating, average of three runs
[11] = corn (maize), 60 min, 1 % actives, pH 7

| Compound | IFT at 0.1% actives (single component) [1] | IFT at 0.1% actives/mineral oil (blend) [1] [mN/m] | Calculated IFT (no synergy) [1] [mN/m] | Synergy? [1] | Estimated Phase Region as a Function of % Actives Level: Hexagonal [2] | Estimated Phase Region as a Function of % Actives Level: Isotropic Clear [2] | Estimated Phase Region as a Function of % Actives Level: Lamellar [2] | Estimated Phase Region as a Function of % Actives Level: Solid/gum/paste [2] | Emulsion stability, mL separation, 1 h [3, 6] [mL] | Emulsion stability, mL separation, 24 h [3, 6] [mL] | Emulsion stability, mL separation, 24 h [3, 7] [mL] | Emulsion stability, mL separation, 1 h [3, 8] [mL] | Rating [3] | Solubility [5] | Emulsion stability, mL separation, 1 h [3, 7] [mL] | Emulsion stability, mL separation, 24 h [3, 8] [mL] | Appearance, 1.0% [5] | other results |
| --- | --- | --- | --- | --- | --- | --- | --- | --- | --- | --- | --- | --- | --- | --- | --- | --- | --- | --- |
| CCCCCCCCCCCCCCCC[N+](C)(C)C.[Cl-] [Ammonyx ® Cetac 30 (cetrimonium CI), cetrimonium CI] | 0.35 mN/m and 0.38 mN/m | – | – | – | – | – | – | – | – | – | – | – | – | – | – | – | – | – |
| Undecylenic Alcohol, 1EO Ether Sulfate, Ammonium Salt [Unsat. 1EO NH4 sulfate] | 17.22 mN/m | 0.60 | 8.8 | very high | 31-58 % actives | 0-31 % actives | 58-91 % actives | 91-100 % actives | 0 | 0 | 0 | 0 | good | – | – | – | – | – |
| Undecylenic Alcohol Sulfate, Sodium Salt [Unsat. C11 alcohol Na sulfate] | 5.95 mN/m | 0.17 | 3.16 | – | – | 0-68 % actives | – | 68-100 % actives | 0 | 0.25 | 0 | 0.25 | good | good | 0 | 0.4 | – | % solubilized zein [4, 9]: 9.6%; zein number [4, 10]: 19.3; Synergy? ([1]; listed as Unsat C11 Na sulfate, Sulfate, Sodium Salt): very high; Synergy? ([1]; listed as unsaturated C11 alcohol sulfate, sodium salt, Sulfate, Sodium Salt): very high synergy |
| Undecylenic Alcohol, 3EO Ether Sulfate, Sodium Salt [Unsat. C11 alcohol 3EO Na sulfate] | 5.10 mN/m | 0.17 | 2.73 | high | – | 0-70 % actives | – | 80-100 % actives | 0 | – | 0 | 0.2 | good | good | 0 | 0.5 | hazy liquid | % solubilized zein [4, 9]: 16.5%; zein number [4, 10]: 31.6; Estimated Phase Region as a Function of % Actives Level: Solid/isotropic [2]: 70-80 % actives |
| 1-Undecanol, 1EO Ether Sulfate, Ammonium Salt [Sat. 1EO NH4 sulfate] | 12.40 mN/m | 0.85 | 6.2 | high | 26-58 % actives | 0-26 % actives | 67-85 % actives | 85-100 % actives | – | – | – | – | good | – | 0 | 0 | – | Estimated Phase Region as a Function of % Actives Level: Cubic [2]: 58-67 % actives |
| 1-Undecanol, 3EO Ether Sulfate, Sodium Salt [Sat. C11 alcohol 3EO Na sulfate] | 8.80 mN/m | 0.03 | 4.58 | very high | 33-58 % actives | 0-33 % actives | 58-82 % actives | 82-100 % actives | 0 | – | 0 | 0.1 | good | fair-poor | 0 | 0.5 | separated | % solubilized zein [4]: 22.3%; zein number [4]: 44.9; Appearance, 0.1% [5]: hazy liquid |
| CCCCCCCCCCCOS(=O)(=O)[O-].[Na+] [Sat. C11 alcohol Na sulfate, 1-Undecanol Sulfate, Sodium Salt] | 16.34 mN/m | 2.67 | 8.35 | above average | 33-43 % actives | 0-33 % actives | – | 43-100 % actives | 0.2 | 0.4 | 0 | 0.2 | good | – | 0 | 0.3 | separated | % solubilized zein [4, 11]: 52.9%; zein number [4, 11]: 107; Solubility ([5]; 1:1 molar blend of the anionic with Ammonyx Cetac 30): poor; Appearance, 0.1% [5]: separated; sol (solubility) [3, 6]: I; sol (solubility) ([3]; Anionic test sample: replaces anionic portion, paraquat concentrate in 342 ppm water, 30° C.): S; sol (solubility) ([3]; Nonionic test sample: replaces nonionic portion (with NaLAS), 342 ppm water): I |
